Measurements from ChEMBL document CHEMBL1201862, “PubChem BioAssay data set” (2004).
The source made the active and inactive calls.

How the values were obtained:
[1] = biological target: T1, Heat shock factor protein 1 (Mus musculus, UniProt P38532); assay: inhibition of MG132-induced HSE-luciferase signal, confirmation, cell-based, NIH3T3, luminescence, dose retest (AID 2382); type: functional;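 note: NIH3T3 fibroblasts with HSF1-driven luciferase reporter stressed by proteasome inhibitor MG132; luminescence from HSF1-driven luciferase expression after 8 hours of MG132 stress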
T1 sequence (P38532 whole entry): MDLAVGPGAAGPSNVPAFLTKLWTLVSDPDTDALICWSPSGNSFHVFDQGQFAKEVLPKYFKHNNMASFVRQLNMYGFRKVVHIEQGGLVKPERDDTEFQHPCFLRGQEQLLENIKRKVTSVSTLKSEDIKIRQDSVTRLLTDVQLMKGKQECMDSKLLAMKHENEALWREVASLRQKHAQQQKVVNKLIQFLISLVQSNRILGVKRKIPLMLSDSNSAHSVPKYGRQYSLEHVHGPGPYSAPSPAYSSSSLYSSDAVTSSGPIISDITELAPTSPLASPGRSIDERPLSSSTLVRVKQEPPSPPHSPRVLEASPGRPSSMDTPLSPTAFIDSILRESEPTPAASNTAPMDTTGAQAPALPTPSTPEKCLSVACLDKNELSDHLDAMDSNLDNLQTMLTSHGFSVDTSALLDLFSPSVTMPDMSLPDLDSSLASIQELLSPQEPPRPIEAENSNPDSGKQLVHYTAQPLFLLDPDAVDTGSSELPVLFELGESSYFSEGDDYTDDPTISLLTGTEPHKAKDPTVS

[2] = biological target: Eukaryotic translation initiation factor 4H (Homo sapiens, UniProt Q15056); assay: eIF4H inhibition in translation initiation, SAR follow-up (AID 435011); type: functional
[3] = biological target: Polyadenylate-binding protein 1 (Homo sapiens, UniProt P11940); assay: PABP inhibition in translation initiation, SAR follow-up (AID 435018); type: functional
Chain of Polyadenylate-binding protein 1 (P11940 whole entry): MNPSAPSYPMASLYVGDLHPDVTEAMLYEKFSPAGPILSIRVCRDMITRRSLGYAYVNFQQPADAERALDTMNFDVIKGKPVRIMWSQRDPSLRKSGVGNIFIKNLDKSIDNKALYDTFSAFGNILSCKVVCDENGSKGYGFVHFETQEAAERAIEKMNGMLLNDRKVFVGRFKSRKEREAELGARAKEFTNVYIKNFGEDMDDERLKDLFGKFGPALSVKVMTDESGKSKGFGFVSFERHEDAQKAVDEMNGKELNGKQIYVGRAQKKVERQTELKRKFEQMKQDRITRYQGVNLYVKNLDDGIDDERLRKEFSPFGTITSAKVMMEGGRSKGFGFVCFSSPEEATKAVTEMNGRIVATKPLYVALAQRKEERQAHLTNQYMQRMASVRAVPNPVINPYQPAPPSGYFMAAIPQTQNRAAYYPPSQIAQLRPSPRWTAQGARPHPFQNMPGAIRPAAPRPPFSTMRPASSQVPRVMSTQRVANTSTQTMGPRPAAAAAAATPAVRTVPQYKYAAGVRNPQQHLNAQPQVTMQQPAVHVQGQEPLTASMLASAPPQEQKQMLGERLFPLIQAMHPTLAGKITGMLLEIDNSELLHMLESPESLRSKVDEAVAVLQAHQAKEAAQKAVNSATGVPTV

[4] = biological target: T2, Mannose-6-phosphate isomerase (Homo sapiens, UniProt P34949); assay: inhibitors of human PMI, primary screen, biochemical, fluorescence intensity, coupled assay (AID 1209)
T2 sequence (P34949 whole entry): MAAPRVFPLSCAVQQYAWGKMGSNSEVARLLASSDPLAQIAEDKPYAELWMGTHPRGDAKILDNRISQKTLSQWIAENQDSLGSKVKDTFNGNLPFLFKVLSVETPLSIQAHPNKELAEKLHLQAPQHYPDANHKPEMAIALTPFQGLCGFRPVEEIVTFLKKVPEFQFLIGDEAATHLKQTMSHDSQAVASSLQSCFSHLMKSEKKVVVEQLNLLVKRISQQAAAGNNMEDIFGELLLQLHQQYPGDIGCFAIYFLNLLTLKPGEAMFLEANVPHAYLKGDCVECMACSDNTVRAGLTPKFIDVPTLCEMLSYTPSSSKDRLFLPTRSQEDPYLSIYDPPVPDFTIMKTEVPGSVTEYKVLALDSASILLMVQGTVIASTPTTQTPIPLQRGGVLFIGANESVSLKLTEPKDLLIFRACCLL

[5] = biological target: T2, Mannose-6-phosphate isomerase; assay: PMI enzyme inhibitors, confirmation, biochemical, fluorescence intensity (AID 1535)
Phosphomannomutase 2 = Phosphomannomutase 2 (Homo sapiens, UniProt O15305); assay: Counter screen SAR assay for PMM2 inhibitors via a fluorescence intensity assay. [Related pubchem assays (depositor defined):AID1545, AID1574]
Chain of Phosphomannomutase 2 (O15305 whole entry, the tested form may be a part): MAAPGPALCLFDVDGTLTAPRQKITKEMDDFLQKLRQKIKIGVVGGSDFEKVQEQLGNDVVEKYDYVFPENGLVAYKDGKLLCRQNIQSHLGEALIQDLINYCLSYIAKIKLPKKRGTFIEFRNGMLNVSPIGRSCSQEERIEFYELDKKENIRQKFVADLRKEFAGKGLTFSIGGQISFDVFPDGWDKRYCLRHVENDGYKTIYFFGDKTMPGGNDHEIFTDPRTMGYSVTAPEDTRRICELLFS

[6] = biological target: Envelope glycoprotein gp160 (Human immunodeficiency virus 1, UniProt Q6QLK5); assay: inhibitors of HIV fusion peptide binding, primary screen, biochemical, uHTS, fluorescence dequenching (AID 1986)
Chain of Envelope glycoprotein gp160 (Q6QLK5 whole entry, the tested form may be a part): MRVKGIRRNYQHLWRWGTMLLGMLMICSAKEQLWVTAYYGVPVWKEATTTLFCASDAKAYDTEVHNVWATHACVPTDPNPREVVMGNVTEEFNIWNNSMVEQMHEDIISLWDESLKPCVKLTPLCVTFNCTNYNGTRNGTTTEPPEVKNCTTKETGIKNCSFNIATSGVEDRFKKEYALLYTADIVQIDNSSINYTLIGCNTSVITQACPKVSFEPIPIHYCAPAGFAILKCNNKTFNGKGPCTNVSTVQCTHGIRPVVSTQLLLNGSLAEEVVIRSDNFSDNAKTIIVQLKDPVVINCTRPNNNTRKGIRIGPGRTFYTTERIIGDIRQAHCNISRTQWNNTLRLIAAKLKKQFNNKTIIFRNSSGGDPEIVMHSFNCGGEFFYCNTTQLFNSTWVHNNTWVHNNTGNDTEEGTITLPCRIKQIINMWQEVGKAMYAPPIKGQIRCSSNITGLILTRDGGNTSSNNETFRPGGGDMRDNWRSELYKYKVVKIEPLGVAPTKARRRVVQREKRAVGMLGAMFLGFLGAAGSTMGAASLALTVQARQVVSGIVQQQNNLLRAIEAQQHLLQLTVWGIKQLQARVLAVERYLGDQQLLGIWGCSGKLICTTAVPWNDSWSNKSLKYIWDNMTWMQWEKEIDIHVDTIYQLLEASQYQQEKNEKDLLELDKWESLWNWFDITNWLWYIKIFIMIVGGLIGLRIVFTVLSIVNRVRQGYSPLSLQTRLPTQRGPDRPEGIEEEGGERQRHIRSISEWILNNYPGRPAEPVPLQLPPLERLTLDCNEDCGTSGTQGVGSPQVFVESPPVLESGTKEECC

[7] = HEp-2 cell cytotoxicity, dose response, cytotoxicity control for RSV inhibitor project, HTS (AID 2410); type: functional; settings: human respiratory syncytial virus
[8] = biological target: T3, Dual specificity protein phosphatase 3 (Homo sapiens, UniProt P51452); assay: VHR1 phosphatase inhibitors, primary screen, biochemical, absorbance, uHTS (AID 1654)
T3 sequence (P51452 whole entry): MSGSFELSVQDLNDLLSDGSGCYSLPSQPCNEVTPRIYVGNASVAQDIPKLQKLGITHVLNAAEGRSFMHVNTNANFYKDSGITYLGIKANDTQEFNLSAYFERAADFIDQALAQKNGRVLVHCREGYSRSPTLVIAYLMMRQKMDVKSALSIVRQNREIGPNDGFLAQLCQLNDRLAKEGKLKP

[9] = biological target: T3, Dual specificity protein phosphatase 3; assay: VHR1 phosphatase inhibitors, biochemical (AID 1878)
[10] = biological target: T4, Dual specificity protein phosphatase 6 (Rattus norvegicus, UniProt Q64346); assay: MKP-3 phosphatase inhibitors, primary screen, biochemical, rat enzyme, in vitro (AID 425)
T4 sequence (Q64346 whole entry): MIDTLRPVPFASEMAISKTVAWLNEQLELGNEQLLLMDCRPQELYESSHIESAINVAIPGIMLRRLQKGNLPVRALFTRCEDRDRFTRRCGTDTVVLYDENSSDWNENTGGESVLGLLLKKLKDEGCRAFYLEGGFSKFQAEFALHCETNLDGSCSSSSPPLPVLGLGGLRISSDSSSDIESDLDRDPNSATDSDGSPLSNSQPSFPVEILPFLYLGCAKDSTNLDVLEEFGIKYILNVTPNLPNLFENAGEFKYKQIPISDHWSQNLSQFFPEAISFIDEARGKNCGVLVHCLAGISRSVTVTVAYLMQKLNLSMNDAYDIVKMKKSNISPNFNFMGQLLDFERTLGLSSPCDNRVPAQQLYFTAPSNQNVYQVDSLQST

[11] = biological target: T5, Carboxy-terminal domain RNA polymerase II polypeptide A small phosphatase 1 (Homo sapiens, UniProt Q9GZU7); assay: inhibitors of CTDSP1, concentration-response testing, biochemical assay, absorbance-based, actives from ultra-high-throughput screening (AID 540297); type: functional
T5 sequence (Q9GZU7 whole entry): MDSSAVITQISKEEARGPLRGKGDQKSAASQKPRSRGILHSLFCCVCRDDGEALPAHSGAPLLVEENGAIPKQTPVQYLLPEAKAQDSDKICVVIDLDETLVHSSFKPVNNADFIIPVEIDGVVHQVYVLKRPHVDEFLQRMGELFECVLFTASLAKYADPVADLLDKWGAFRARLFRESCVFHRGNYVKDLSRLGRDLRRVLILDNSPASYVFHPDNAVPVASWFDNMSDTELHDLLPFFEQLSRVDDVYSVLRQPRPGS

[12] = biological target: T6, Tyrosine-protein phosphatase non-receptor type 11 (Homo sapiens, UniProt Q06124); assay: SHP2 phosphatase inhibition, dose response, selectivity assay for STEP inhibitor project, biochemical (AID 602367); type: functional; settings: read-out: IC50_Mean
T6 sequence (Q06124 whole entry): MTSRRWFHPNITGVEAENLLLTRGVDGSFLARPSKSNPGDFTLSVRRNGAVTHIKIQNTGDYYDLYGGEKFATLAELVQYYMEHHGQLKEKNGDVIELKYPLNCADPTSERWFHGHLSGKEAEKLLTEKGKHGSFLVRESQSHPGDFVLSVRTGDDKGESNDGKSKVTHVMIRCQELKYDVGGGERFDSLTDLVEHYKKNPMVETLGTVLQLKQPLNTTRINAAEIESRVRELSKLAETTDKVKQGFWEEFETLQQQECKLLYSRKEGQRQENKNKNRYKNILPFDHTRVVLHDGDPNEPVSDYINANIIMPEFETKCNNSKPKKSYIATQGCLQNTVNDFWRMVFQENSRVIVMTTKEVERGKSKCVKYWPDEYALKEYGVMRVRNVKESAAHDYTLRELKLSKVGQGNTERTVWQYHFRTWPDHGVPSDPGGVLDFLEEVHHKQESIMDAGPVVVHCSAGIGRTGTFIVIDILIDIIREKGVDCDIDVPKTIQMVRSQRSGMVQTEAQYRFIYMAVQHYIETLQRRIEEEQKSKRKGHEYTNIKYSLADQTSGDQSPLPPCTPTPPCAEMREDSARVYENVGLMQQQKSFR

[13] = biological target: T7, Tyrosine-protein phosphatase non-receptor type 5 (Homo sapiens, UniProt P54829); assay: STEP phosphatase inhibitors, confirmation, biochemical, fluorescence intensity, uHTS hits (AID 602372); type: functional; settings: read-out: IC50_Mean
T7 sequence (P54829 whole entry): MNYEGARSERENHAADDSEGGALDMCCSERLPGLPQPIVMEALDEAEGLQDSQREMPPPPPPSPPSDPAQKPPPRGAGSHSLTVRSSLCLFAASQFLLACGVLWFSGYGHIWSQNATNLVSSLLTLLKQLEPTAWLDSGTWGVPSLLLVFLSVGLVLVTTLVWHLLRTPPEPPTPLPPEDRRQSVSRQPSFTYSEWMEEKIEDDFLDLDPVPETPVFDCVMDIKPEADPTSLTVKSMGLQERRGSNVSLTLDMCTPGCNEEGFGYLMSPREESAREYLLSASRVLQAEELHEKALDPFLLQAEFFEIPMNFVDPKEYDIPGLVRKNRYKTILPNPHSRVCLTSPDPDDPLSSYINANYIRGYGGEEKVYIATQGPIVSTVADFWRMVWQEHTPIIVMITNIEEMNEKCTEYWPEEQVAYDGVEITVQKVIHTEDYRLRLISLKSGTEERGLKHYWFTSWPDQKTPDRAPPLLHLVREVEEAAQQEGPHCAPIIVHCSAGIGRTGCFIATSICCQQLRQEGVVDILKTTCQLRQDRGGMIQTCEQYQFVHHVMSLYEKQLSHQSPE

[14] = biological target: T3, Dual specificity protein phosphatase 3; assay: VHR phosphatase inhibition, dose response, selectivity assay for STEP inhibitor project, biochemical (AID 602374); type: functional; settings: read-out: IC50_Mean
[15] = biological target: T8, Low molecular weight phosphotyrosine protein phosphatase (Homo sapiens, UniProt P24666); type: functional; settings: read-out: IC50_Mean
T8 sequence (P24666 whole entry): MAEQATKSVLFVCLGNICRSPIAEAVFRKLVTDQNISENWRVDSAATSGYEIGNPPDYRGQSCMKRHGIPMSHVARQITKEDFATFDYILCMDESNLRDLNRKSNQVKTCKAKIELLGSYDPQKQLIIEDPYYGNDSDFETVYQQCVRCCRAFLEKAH

[16] = biological target: T9, Tyrosine-protein phosphatase non-receptor type 22 (Homo sapiens, UniProt Q9Y2R2); assay: PTPN22 phosphatase inhibition, dose response, selectivity assay for STEP inhibitor project, biochemical (AID 624241); type: functional
T9 sequence (Q9Y2R2 whole entry): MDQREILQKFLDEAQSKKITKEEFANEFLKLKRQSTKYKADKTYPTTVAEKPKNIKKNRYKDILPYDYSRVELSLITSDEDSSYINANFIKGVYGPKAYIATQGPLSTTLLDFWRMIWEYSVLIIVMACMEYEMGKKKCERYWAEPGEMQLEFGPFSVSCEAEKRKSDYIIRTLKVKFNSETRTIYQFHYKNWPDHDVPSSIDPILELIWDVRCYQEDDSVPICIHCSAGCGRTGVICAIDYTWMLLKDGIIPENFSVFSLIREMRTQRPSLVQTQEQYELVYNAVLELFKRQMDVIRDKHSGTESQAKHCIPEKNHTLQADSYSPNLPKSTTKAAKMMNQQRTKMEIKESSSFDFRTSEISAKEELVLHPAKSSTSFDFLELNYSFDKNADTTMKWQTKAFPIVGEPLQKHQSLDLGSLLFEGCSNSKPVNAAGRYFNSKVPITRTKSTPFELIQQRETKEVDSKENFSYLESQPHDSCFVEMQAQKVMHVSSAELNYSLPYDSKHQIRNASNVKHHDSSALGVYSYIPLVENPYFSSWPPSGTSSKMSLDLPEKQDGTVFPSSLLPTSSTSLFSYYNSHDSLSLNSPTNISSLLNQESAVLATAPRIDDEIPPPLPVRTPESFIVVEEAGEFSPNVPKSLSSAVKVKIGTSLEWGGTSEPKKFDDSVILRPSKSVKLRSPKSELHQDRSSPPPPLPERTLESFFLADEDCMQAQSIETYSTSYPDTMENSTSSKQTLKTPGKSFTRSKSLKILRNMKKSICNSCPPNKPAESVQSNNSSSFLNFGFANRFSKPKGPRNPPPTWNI

[17] = biological target: T8, Low molecular weight phosphotyrosine protein phosphatase; type: functional; settings: read-out: IC50_Mean; remark: listed apart in the source
[18] = biological target: T9, Tyrosine-protein phosphatase non-receptor type 22; assay: LYP phosphatase inhibition for selectivity, dose response, selectivity assay for LMPTP inhibitor project, biochemical, fluorescence, LYP catalytic domain (AID 652006); type: functional; settings: read-out: IC50_Mean

COc1ccc(CCNC(=O)CSc2ccc(-c3ccco3)nn2)cc1
EC50 [1]: > 195 µM (not active) | IC50 [2]: 70.3 µM (active) | IC50 [3]: > 100 µM (inactive)

CCc1ccc(NC2Nc3cc(C)nn3S2)cc1 (stereo not given)
IC50 [4]: 8.43 µM (active) | IC50 [5]: > 50 µM (inactive) | IC50 (Phosphomannomutase 2): > 100 µM (inactive)

CCOc1cc(/C=N/NC2=NC(=O)C(CC(=O)O)S2)ccc1OCc1ccc(Cl)cc1Cl (stereo not given)
IC50 [6]: 13.6 µM (active) | CC50 [7]: 20.8 µM (active) | IC50 [8]: 8.44 µM (active) | IC50 [9]: 5.27 µM (active) | IC50 [10]: 25.6 µM (active) | IC50 [11]: 2.32 µM (active) | IC50 [12]: 2.2 µM (active) | IC50 [13]: 4.09 µM (active) | IC50 [14]: 2.42 µM (active) | IC50 [15]: 12.1 µM (active) | IC50 [16]: 7.26 µM (active) | IC50 [17]: 8.68 µM (active) | IC50 [18]: 22.9 µM (inactive) | IC50 (cells): 34.6 µM (active)
